Assay results taken from US20260199371A1, “COORDINATION COMPOUND, COMPOSITIONS, AND USES THEREOF FOR TREATING CANCERS” (HUEIYUAN BIOTECH LLC, priority 2023, published 2026).

Key:
LoVo-OXAR cells [1] = settings: single agent: compound (II) 2000 μg/ml or oxaliplatin 50 μg/ml, 48 hours
HA22T-parental cells = settings: 24 hours
[2] = test system: EMT markers in LoVo-parental cells; settings: qRT-PCR
From the text: (§1) Vimentin and E-cadherin are molecular markers linked to tumor progression through their roles in EMT, which is a pathological process contributing to migration and invasion of cancer cells and tumor progression. Vimentin is a key component of intermediate filaments, which helps maintain cellular integrity and resistance to stress. E-cadherin plays a role in maintaining epithelial phenotypes by mediating contact inhibition when cells proliferate and reach confluence. To further investigate the influence of the compound (II) on EMT marker expression, western blotting, immunofluorescence detection, and quantitative real-time reverse transcription polymerase chain reaction (qRT-PCR) were performed in LoVo-parental and LoVo-OXAR cells treated with various doses of the compound (II) for 24 hours.
(§2) Total RNA from the cells after the indicated treatments was extracted using the GeneJET RNA purification kit (ThermoFisher Scientific, Lithuania) and reverse transcribed to cDNA using a GScript First-Strand Synthesis Kit, a cDNA synthesis kit, and Oligo-dT primers according to the manufacturer's instructions. RT-PCR was performed using ORA^T SEE qPCR Green ROX L Mix, 2× (HighQu, USA). Primers for EMT markers (Vimentin, E-cadherin, TJP1, and FN1) and GAPDH (as endogenous control) were synthesized by Bio-ProTech based the sequences in TABLE 1. The 2^−ΔΔCt method was used to calculate a relative fold change in gene expression. […] TJP1 is a marker of epithelial cells that disappears during EMT and cancer development. In contrast, FN1 is involved in the occurrence and development of various tumors and acts as a critical gene in gastric cancer.

[3] = test system: EMT markers in LoVo-OXAR cells; settings: qRT-PCR
From the text: as §1, §2

[4] = test system: EMT markers in LoVo-OXAR cells; settings: immunofluorescence
From the text: as §1
The cells were then permeabilized with 0.1% Triton X-100 in 0.1% sodium citrate and the well was blocked with blocking buffer (2% bovine serum albumin), followed by immunofluorescence staining. The cells were incubated with primary antibodies against vimentin and E-cadherin for 24 hours at 4° C. and subsequently incubated with fluorescent secondary antibodies for 1 hour at 25° C. before DAPI staining and observation using fluorescence microscopy.

[5] = test system: PANC-1 cells tumor xenograft; assay: Subcutaneous PANC-1 tumor xenograft in C.B17/SCID mice; settings: for Change in body weight / TGI (%): oral; for TGI (%): 14 days, read 14 days after the treatment period
LoVo-OXAR cells [6] = settings: single agent: compound (II) 2000 μg/ml or oxaliplatin 50 μg/ml, 72 hours
LoVo-parental cells = settings: 500 μg/ml, 24 hours, versus control
Procedure: (§3) To evaluate whether the compound (II) induces apoptosis of cancer cells, terminal deoxynucleotidyl transferase dUTP nick-end labeling (TUNEL) assay was employed to detect apoptosis. In brief, LoVo-parental cells and LoVo-OXAR cells were treated with 500 μg/ml and 2000 μg/ml of the compound (II), respectively, for 24 hours before they were subject to TUNEL assay (In Situ Cell Death Detection Kit; Roche Applied Science, Indianapolis, IN, USA) and nuclear counterstain with 0.1 mg/ml 4′,6-diamidino-2-phenylindole (DAPI, Sigma-Aldrich, St. Louis, MO, USA). Lovo-parental or LoVo-OXAR cells treated with 0 μg/ml of the compound (II) were set as control groups. TUNEL-positive cells were examined by Olympus CKX53 microscope (Olympus, Shinjuku-ku, Tokyo, Japan).

LoVo-OXAR cells [7] = settings: 2000 μg/ml, 24 hours, versus control
Procedure: as §3

GBM 8401 cells = settings: 0-1800 μg/ml, 24 hours
Procedure: Human brain glioblastoma multiforme GBM 8401 cells (commercially available from BCRC under the number BCRC 60163) were cultured in RPMI 1640 medium supplemented with 10% FBS.

[8] = test system: ER stress markers in LoVo-OXAR cells; settings: 2000 μg/ml, 24 hours
Procedure: (§4) Western blot analysis was conducted using primary antibodies against protein kinase RNA-like endoplasmic reticulum kinase (PERK), phosphorylated PERK (p-PERK), alpha subunit of eukaryotic translation initiation factor 2 (eIF2α), phosphorylated eIF2α (p-eIF2α), activating transcription factor 4 (ATF4), proliferating cell nuclear antigen (PCNA), glyceraldehyde 3-phosphate dehydrogenase (GAPDH), and caspase 3 (San-ta Cruz Biotechnology Inc. Santa Cruz, California, USA). GAPDH was used as an internal control for the normalization of protein expression. […] Phosphorylated eIF2α has been known to inhibit the synthesis of various proteins participating in tumorigenesis.

[9] = test system: ER stress markers in LoVo-parental cells; settings: 500 μg/ml, 24 hours
Procedure: as §4

PANC-1 cells = settings: six days
Procedure: (§5) Human pancreatic carcinoma MIA PaCa-2 cells (commercially available from ATCC under the number CRL-1420) were cultured in DMEM supplemented with 10% FBS, 1 mM sodium pyruvate, and 2.5% horse serum. Human pancreatic epithelioid carcinoma PANC-1 cells (commercially available from ATCC under the number CRL-1469) were cultured in DMEM supplemented with 10% FBS and 1 mM sodium pyruvate.

MIA PaCa-2 cells = settings: six days
Procedure: as §5

[10] = Group 5: 150 mg/kg, twice a day

Structure (SMILES): CC(=O)[O-].CC(=O)[O-].CC(=O)[O-].CC(=O)[O-].CC(=O)[O-].CC(=O)[O-].O.O.O.O.O=[N+]([O-])[O-].[Cr+3].[Fe+3].[Fe+3].[OH-].[OH-] [compound (II)]
- migration rate of LoVo-OXAR cells (LoVo-OXAR cells [1]): significantly decreased
- viability of HA22T-parental cells (HA22T-parental cells; 0-1250 μg/ml): reduced the viability of both liver cancer cells in a dose-dependent manner
- IC50 against HA22T-parental cells (HA22T-parental cells; MTT): approximately 1000 μg/ml
- E-cadherin mRNA expression [2]: increased
- FN1 mRNA expression [2]: decreased
- TJP1 mRNA expression [2]: increased
- vimentin mRNA expression [2]: decreased
- E-cadherin mRNA expression [3]: increased
- FN1 mRNA expression [3]: decreased
- TJP1 mRNA expression [3]: increased
- vimentin mRNA expression [3]: decreased
- expression of E-cadherin [4]: significantly increased
- vimentin expression [4]: significantly suppressed
- Change in body weight ([5]; Group 3: 100 mg/kg, once a day): 107 ± 5%
- TGI (%) ([5]; Group 3: 100 mg/kg, once a day): 51 ± 8%
- Change in body weight ([5]; Group 4: 150 mg/kg, once a day): 102 ± 3%
- TGI (%) ([5]; Group 4: 150 mg/kg, once a day): 51 ± 6%
- Change in body weight [5, 10]: 103 ± 4%
- TGI (%) [5, 10]: 88 ± 6%
- toxicity to mice at a therapeutically effective dose ([5]; Groups 3-5): not toxic to mice
- body weight of the mice ([5]; Groups 3-5, FIG. 20B): remained constant
- invasion rate of LoVo-OXAR cells (LoVo-OXAR cells [6]): significantly decreased
- apoptotic cell death (TUNEL) in LoVo-parental cells (LoVo-parental cells): significant increase in apoptotic cell death
- apoptotic cell death (TUNEL) in LoVo-OXAR cells (LoVo-OXAR cells [7]): significant increase in apoptotic cell death
- viability of GBM 8401 cells (GBM 8401 cells): reduced the viability of the glioblastoma cells in a dose-dependent manner
- eIF2α levels in LoVo-OXAR cells ([8]; western blot): decreased
- phosphorylation of eIF2α in LoVo-OXAR cells ([8]; western blot): increased
- caspase-3 cleavage ([8]; LoVo-OXAR cells): activates caspase-3 cleavage
- expression of ER stress markers, including PERK, p-eIF2α, and ATF4 ([8]; LoVo-OXAR cells): enhancing the expression of ER stress markers
- caspase-3 cleavage [9]: activates caspase-3 cleavage
- expression of ER stress markers, including PERK, p-eIF2α, and ATF4 [9]: enhancing the expression of ER stress markers
- viability of PANC-1 cells (PANC-1 cells; 0-2000 μg/ml): reduced the viability of both pancreatic cancer cells in a dose-dependent manner
- IC50 against PANC-1 cells (PANC-1 cells; MTT): ~1700 µg/mL
- viability of MIA PaCa-2 cells (MIA PaCa-2 cells; 0-2000 μg/ml): reduced the viability of both pancreatic cancer cells in a dose-dependent manner
- IC50 against MIA PaCa-2 cells (MIA PaCa-2 cells; MTT): approximately 660 μg/ml
